According to US20050203119A1, “Dihydropyridine compounds for treating or preventing metabolic disorders” (priority 2003, published 2005):

Tests used:
[1] = tested on: NIDDM male mice (C57BLKS/J-m+/+Lepr db); experiment: Glucose reduction in db/db mouse model, oral once daily for 7 days (Example 111); assay type: in vivo; details: for Serum Glucose % Pre-Treatment Baseline: 90 min post-dosing
Protocol: Non-insulin dependent diabetic mellitus (NIDDM) male mice (C57BLKS/J-m+/+Lepr db) weighing 60±5 g (12 weeks of age) provided by the Institute for Animal Reproduction (IAR, Japan) were used. […] The animals were housed in Individually Ventilated Cages Racks (IVC Racks, 36 Mini Isolator systems) throughout the experiment. Each APEC cage was autoclave sterilized and contained 4 mice and then maintained in a hygienic environment under controlled temperature (22-24° C.) and humidity (60-70%) with 12-hour light/dark cycles. The animals were given sterilized lab Chow and sterilized distilled water ad libitum.
Sterilized distilled water, ELISA Insulin Assay Kit (SPI bio, France), glucose (Merck), Glucose-HA assay kit (Wako, Japan), methylcellulose (Sigma), and troglitazone (BioMOL).
Compound 1 was suspended in 0.5% methylcellulose. Compound 1 at 100, 50 and 30 mg/kg as well as vehicle were administered to NIDDM male mice weighing 60±5 g (11-12 weeks of age), orally once daily for 7 consecutive days starting immediately after the first blood sampling (pre-treatment on day 1). Blood sampling was repeated at 90 minutes post-dosing on day 3 and day 7. The dosing volume was 10 ml/kg. Serum glucose level in the pre- and post-treatment periods were determined by enzymatic (Mutaratase-GOD) method. Post-treatment serum glucose value expressed in percentage of respective pre-treatment values were calculated and unpaired Student's t test was then applied for comparison between compound treated and vehicle control groups. Differences were considered significant at P<0.05. In addition, the liver weight and body weight were recorded to determine the ratio of liver to body weight.

[2] = tested on: obese diabetic mice (C57BL/6 ob/ob); experiment: Glucose reduction in ob/ob mouse model (Example 113); assay type: in vivo; details: 3.5 hours after administration
Protocol: Genetically mutated obese diabetic mice (C57BL/6 ob/ob) were purchased from the Jackson Laboratory (Bar Harbor, Me.). Eight weeks old male animals were employed in this study. After acclimation, mice were randomized for equivalent mean blood glucose on day 0 with eight mice each group, and received either vehicle or Compound 1 in 0.5% methylcellulose (ps400) by oral gavage once daily for 8 consecutive days. Plasma glucose was monitored 3.5 hours after administration of test compound on day 3 and 8.

[3] = tested on: C57BLKS/J db/db male mice; experiment: Glucose, insulin and triglyceride reduction in db/db mouse model, 10 days (Example 115); assay type: in vivo; details: orally once daily for 10 days
Protocol: Compound 1 was evaluated for its effect on plasma glucose, triglyceride and insulin in C57BLKS/J db/db male mice.
Compound 1 or vehicle was administered orally once daily for 10 consecutive days. Animals were divided into either vehicle or treatment groups (n=8 per group), and blood glucose, serum triglyceride and insulin were tested at the end of assay by Ani Lytic Inc (Baltimore, Md.).

[4] = tested on: C57BLKS/J db/db male mice; experiment: Glucose reduction, Compound 1 in combination with rosiglitazone, db/db mice (Example 116, FIG. 2); assay type: in vivo, mouse; details: Compound 1 alone, 50 mg/kg
[5] = tested on: Male SD rats; details: rat, in vivo
Protocol: Male SD rats weighing 350-420 g were anesthetized with 2-3% isoflurane. The femoral artery and vein were catheterized and connected to a mean arterial blood pressure (MAP) and heart rate (HR) monitor and a continuous intravenous infusion pump. Under anesthesia, MAP and HR were recorded 10-20 minutes prior to and during the continuous intravenous infusion of test compounds for 60-70 minutes. The infusion rate, 0.14-0.16 ml/kg/minute, was determined on the basis of vehicle tolerance. The infusion doses, 1.0-1.25 mg/kg/minute, were selected, depending upon the solubility of the compound and effects on MAP and HR of the positive control compounds at the lethal dose. The maximal effective dose or lethal dose of test compounds were determined accordingly.

Structure (SMILES): CCOC(=O)C1=C(COCCN)NC2=C(C(=O)CC(C)(C)C2)C1c1ccccc1Cl (centres unmarked) [Compound 1, 2-(2-amino-ethoxymethyl)-4-(2-chloro-phenyl)-7,7-dimethyl-5-oxo-1,4,5,6,7,8-Hexahydro-quinoline-3-carboxylic acid ethyl ester]
- Serum Glucose % Pre-Treatment Baseline ([1]; Day 3, 30 mg/kg orally once daily): 96.7 ± 2.2 %
- Serum Glucose % Pre-Treatment Baseline ([1]; Day 3, 50 mg/kg orally once daily): 86.5 ± 3.5 %
- Serum Glucose % Pre-Treatment Baseline ([1]; Day 3, 100 mg/kg orally once daily): 85.6 ± 2.4 %
- Serum Glucose % Pre-Treatment Baseline ([1]; Day 7, 30 mg/kg orally once daily): 91.6 ± 3.7%
- Serum Glucose % Pre-Treatment Baseline ([1]; Day 7, 50 mg/kg orally once daily): 82.9 ± 4.4 %
- Serum Glucose % Pre-Treatment Baseline ([1]; Day 7, 100 mg/kg orally once daily): 80.9 ± 3.3 %
- liver weight relative to body weight ([1]; any treatment group (30, 50, 100 mg/kg, 7 days) vs vehicle control): No significant difference
- percent normalized reduction of serum glucose vs vehicle ([2]; day 3, 50 mg/kg oral gavage once daily): 30%
- percent normalized reduction of serum glucose vs vehicle ([2]; day 8, 50 mg/kg oral gavage once daily): 22.3%
- % Reduction (relative to vehicle), Glucose [3]: 14%
- % Reduction (relative to vehicle), Insulin [3]: 19%
- % Reduction (relative to vehicle), Triglyceride [3]: 17%
- Glucose ([3]; end of assay): 327.50 mg/dL
- Insulin ([3]; end of assay): 11.32 ng/mL
- Triglyceride ([3]; end of assay): 336.13 mg/dL
- blood glucose level, monotherapy [4]: reduced glucose levels
- Lethal Dose [5]: >70 mg/kg
